Measurements reported in patent publication US10682341B2, “Method for treating obesity, diabetes, cardiovascular and kidney diseases by regulating GPR30/GPER activity” (STC.UNM, priority 2015, dated 2020).
Entries after “also recorded” stand apart in the source; their conditions may differ.

What was measured:
[1] = tested on: ovariectomized female mice; assay: Ovariectomized female mouse model of obesity and diabetes; format: in vivo; conditions: OVX females
Text: (§1) For females, an ovariectomized female mouse model, with ovary-intact control animals, fed a regular chow diet, was employed. Loss of the ovaries results in the loss of endogenous estrogenic protection towards metabolic pathophysiology and weight gain, resulting in increased overall weight gain, abdominal adiposity and ensuing metabolic (including glucose and lipid) dysfunction in ovariectomized mice compared to ovary-intact control animals. For males, the model employed involves diet-induced obesity. In the absence of the estrogenic protection as in female mice, male mice fed a high fat chow gain weight and suffer from metabolic pathophysiology compared to mice on normal chow. […].
(§2) For measurement of food intake, activity and energy expenditure, mice were placed in metabolic cages. All measurements were obtained using a computer-controlled indirect calorimetry system. Prior to data collection, mice were acclimatized in the chambers for 24 hours, after which data was collected for the subsequent 48 hours, including two complete light cycles (14 h) and two complete dark cycles (10 h). Oxygen consumption (VO2), carbon dioxide production (VCO2), activity and food consumption were measured for 48 hours. The animals had ad libitum access to standard rodent chow or high fat chow and water during the study. To detect ambulatory activity and position, beam breaks in all the three planes, X, Y and Z directions, were utilized to obtain total activity. To calculate oxygen consumption (VO2) and carbon dioxide production (VCO2) were assessed by measuring the gas concentrations at the inlet and outlet of the sealed chambers.
(§3) Post euthanasia, tissues (epididymal/perirenal fat, liver) were dissected and weighed. Tibia length was measured after clearing of soft tissue. For H&E staining, at sacrifice, tissues were fixed in buffered formalin for 24 hours and subsequently embedded in paraffin. Tissue sections (5 μm-thick) were stained with Hematoxylin and Eosin.
(§4) Prior to GTT and ITT, mice were fasted for 4 hours and basal glucose (0 min) was measured. Subsequently, mice were intraperitoneally injected with glucose (2 g/kg body weight) or insulin (0.5 U/kg body weight). After the injection, blood glucose was monitored at regular time intervals (15, 30, 60 and 120 min after injection) from tail nicks. Additionally, for measuring the fasting insulin, blood was collected from the tail nicks at 0 time point and plasma was separated and used for measuring the fasting insulin using a mouse Insulin ELISA kit. Blood glucose was monitored using a glucose meter.
(§5) Total RNA was extracted from frozen tissues (˜100 mg) or cultured cells using the RNeasy Mini Kit. Isolated RNA (˜100 ng) was used for cDNA synthesis using the ImProm-II™ Reverse Transcription System in a final reaction volume of 20 μL in a denaturation and extension cycle. Subsequently, quantitative real time PCR was carried out in a 7500 Fast Real-Time PCR System. Gene expression was normalized to 18S RNA as an internal reference and fold change over the control was calculated using the ddCt method. Quantitative real-time PCR analyses were performed in triplicate from a minimum of 5 separate animals.

high fat diet male mice = assay: Diet induced obesity (high fat diet) male mouse model; format: in vivo; conditions: HFD males
Text: as §1, §2, §3, §4

3T3-L1 cells = assay: Lipid accumulation in 3T3-L1 adipocytes (Oil Red O staining); format: cell-based, mouse; conditions: 3T3-L1 murine adipocytes, G-1 during differentiation
Description: (§6) Mouse fibroblasts, NIH 3T3-L1 cells were grown in DMEM with 10% FBS and subcultured before reaching 70% confluence. For differentiation, cells were seeded in 24 well plates or 60 mm dishes and allowed to grow till confluent. Subsequently medium was changed and cells were kept for additional two days before adding the differentiation cocktail in the medium (0.5 mM isomethylbutylxanthine, 1 μM dexamethasone and 10 μg/mL insulin) for 3 days (with or without GPER selective agonist G-1). The medium was then changed to the regular DMEM with FBS as above.
(§7) Eight days after differentiation, adipocytes are briefly rinsed with PBS and fixed in 4% PFA for 30-60 min and washed with PBS. Freshly prepared Oil Red-O working solution was added to cells and incubated for ˜60 min at room temperature, washed t 3 times with PBS and air dried. Images were acquired or lipids extracted with isopropanol and absorbance at 520 nm to quantitate the lipids measured.

human adipocytes = assay: Lipid accumulation in human adipocytes (Oil Red O staining); format: cell-based; conditions: G-1 during differentiation
Description: (§8) For human adipocytic differentiation, human preadipocytes were purchased from Zen-Bio and differentiated with or without GPER-selective agonist G-1. Mouse myoblasts, C2C12 were grown in low glucose DMEM with 10% FBS and subcultured before reaching 70-80% confluence. For differentiation into myocytes, cells were seeded on 12-well plates and at confluence were switched to DMEM containing 2% horse serum. The medium was changed every other day and cells were used for glucose uptake assay between 6-8 days post differentiation.
as §7

PPARγ and ap2 = assay: Expression of adipogenic markers in 3T3-L1 cells; format: cell-based, mouse; conditions: 3T3-L1 cells differentiated in the presence of G-1
Description: as §6, §5

C2C12 cells = assay: Glucose uptake in differentiated C2C12 myocytes; format: cell-based, mouse
Description: as §8
Differentiated C2C12 cells were washed twice with Krebs-Ringer phosphate buffer and incubated in serum free low glucose DMEM for 3 hours. Cells were then treated with 100 nM insulin for 15 min and subsequently incubated in Krebs-Ringer phosphate buffer containing […] of 2-deoxy-d-[^3H]glucose for 20 min. The reaction was terminated by adding ice-cold PBS on plates on ice. After three washes with PBS, the cells were dissolved in 0.1% sodium dodecyl sulfate and radioactivity was quantified by liquid scintillation counting. Nonspecific deoxyglucose uptake was measured in the presence of […] cytochalasin B and was subtracted from the total uptake to get specific glucose uptake.

[2] = tested on: AMP-activated protein kinase (AMPK); assay: AMPK activation in differentiated murine adipocytes; format: cell-based, mouse
Description: as §6
Tissues were homogenized in RIPA buffer supplemented with sodium fluoride (50 mM), sodium orthovanadate (1 mM), phenylmethylsulfonylfluoride (1 mM), and protease cocktail. Protein amounts were quantified by Bradford method and equal amounts (30 μg) of protein were loaded for all the samples on 4-20% SDS-PAGE gel. Proteins were then transferred to polyvinylidene fluoride membrane, blocked with 3% newborn calf serum in TBST before overnight incubation with primary antibodies. Subsequently, blots were incubated with secondary HRP-conjugated antibodies and developed using SuperSignal West Pico Chemiluminescent Substrate. Blots were then scanned and quantified using ImageJ software.

[3] = tested on: differentiated murine adipocytes; assay: Mitochondrial biogenesis in differentiated murine adipocytes; format: cell-based, mouse
Description: as §6

CC(=O)c1ccc2c(c1)C1C=CCC1C(c1cc3c(cc1Br)OCO3)N2 (centres unmarked) [G-1]
adipocyte size in perigonadal fat (H&E staining) [1]: smaller adipocytes
antioxidant markers in muscle and liver [1]: increases antioxidant markers
fasting glucose levels [1]: lower fasting glucose levels; also recorded: decreases fasting blood glucose
glucose tolerance (glucose tolerance test) [1]: improves glucose tolerance
insulin sensitivity (insulin tolerance test) [1]: enhances insulin sensitivity
total body weight ([1]; G-1 200 μg, 3 days per week, subcutaneously for 6 weeks vs vehicle): attenuates weight gain; also recorded: decrease in the total body weight
weights of perigonadal fat pads ([1]; after 6 week treatment): decreased weights of perigonadal fat pads; also recorded: lower
mRNA levels of pro-inflammatory, angiogenic and lipogenic markers in adipose tissue ([1]; gonadal fat, quantitative PCR): lower; also recorded: reduces inflammatory, angiogenic and lipogenic markers
energy expenditure (O2 consumption) ([1]; metabolic cages): increase in O2 consumption; also recorded: increased energy expenditure
pro-inflammatory and lipogenic markers in skeletal muscle and liver ([1]; quantitative PCR): decreased pro-inflammatory and lipogenic markers; also recorded: reduces lipogenic and inflammation
fasting glucose levels (high fat diet male mice): lower fasting glucose levels; also recorded: decreases fasting blood glucose
glucose tolerance (glucose tolerance test) (high fat diet male mice): improves glucose tolerance
insulin sensitivity (insulin tolerance test) (high fat diet male mice): improved insulin sensitivity; also recorded: enhances insulin sensitivity
total body weight (high fat diet male mice; G-1 200 μg, 5 days per week, subcutaneously for 8 weeks vs vehicle): attenuates weight gain; also recorded: decrease in the total body weight
liver weights (high fat diet male mice; after 8 week treatment): significant decrease in liver weights; also recorded: lower
perirenal adipose fat pad weights (high fat diet male mice; after 8 week treatment): significant decrease; also recorded: lower
energy expenditure (O2 consumption) (high fat diet male mice; metabolic cages): increase in O2 consumption; also recorded: increased energy expenditure
lipid accumulation (3T3-L1 cells): decreased lipid accumulation; also recorded: inhibits lipid accumulation
lipid accumulation (human adipocytes): decreased lipid accumulation; also recorded: inhibits lipid accumulation
expression of adipogenic markers PPARγ and ap2 (PPARγ and ap2): lower levels of adipogenic markers; also recorded: down regulates
cellular uptake of glucose (C2C12 cells): increased the cellular uptake of glucose; also recorded: increases glucose uptake
AMPK activation [2]: activated AMP-activated protein kinase (AMPK); also recorded: activates AMPK
mitochondrial biogenesis [3]: increased the mitochondrial biogenesis; also recorded: increases mitochondrial biogenesis
